Test [1] deals with S. aureus (ATCC29213). Kind of test: In vitro susceptibility, broth microdilution (MIC). It is filed as cell-based. The settings on record: Staphylococcus aureus. The procedure, abridged: (§1)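 CLSI 2-fold serial broth microdilution; K. pneumoniae C238 grown in L-broth, S. aureus ATCC 29213 in Mueller Hinton broth, plates incubated 18–24 h at 37 °C. MIC taken as lowest concentration giving complete growth inhibition by OD600 versus compound-free wells, background-subtracted.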
In general terms: Dilution methods test growth across graded concentrations, often in twofold steps.

The subject of test [2] is K. pneumoniae (C238). Kind of test: In vitro susceptibility, broth microdilution (MIC). Format: cell-based. As to conditions: Klebsiella pneumoniae; K. pneumoniae (C238); read-out: Antimicrobial activity (MIC) K. pneumoniae. The procedure, abridged: as §1
For test [3], the system named is VRE#2 (2010A). Kind of test: In vitro susceptibility, broth microdilution (MIC). Format: cell-based, vancomycin resistant Enterococci. As to conditions: read-out: Antimicrobial activity (MIC) VRE#2. The source says: (§2) Epidemic methicillin resistant S. aureus (MRSA) strain sequenced at the Sanger Centre (MRSA252, NRS71) was obtained from NARSA (Network on Antimicrobial Resistance in S. aureus). Methicillin sensitive S. aureus (ATCC 29213 and 25923), methicillin resistant S. aureus (ATCC BAA-1762), and Salmonella typhimurium (ATCC BAA-185) were obtained from ATCC, The Global Bioresource Center. Acinetobacter baumannii (ATCC 19606 and ATCC 17978), Klebsiella pneumonia (C238), vancomycin resistant Enterococci #2 (2010A) (VRE#2), MRSA (USA400, MW2) and Pseudomonas aeruginosa (PA0-1) were obtained from the laboratory of Dr B. B. Finlay at the University of British Columbia (Vancouver, Canada).
(§3) The antimicrobial activities of PK inhibitor candidates were determined using the 96-well microtiter standard 2-fold serial broth microdilution method as described by CLSI (formerly NCCLS) with the various gram-positive and gram-negative bacteria species mentioned above. Bacteria from a single colony were grown, overnight in either BHI Broth (VRE), mueller hinton broth (S. aureus 29213; MRSA USA400, A. baumannii 19606, MRSA BAA-1762) or L-broth (P. aeruginosa, S. typhimurium, K. pneumonia and A. baumannii 17978). Each compound was prepared in DMSO with 2-fold serial dilutions to give a final concentration of, 0.031 to 64 μg/ml. 10 μl of the compound solution was then added, in duplicate, to either, 190 μl of cation adjusted mueller hinton broth (CAMHB) or 190 μl CAMHB containing ˜2.5×10^5 CFU/ml of bacteria (final compound concentration 0.031 to 64 μg/ml). Culture plates were incubated for 18-24 h at 37° C., and optical density at 600 nm (OD600) was measured using a Benchmark Plus™ microplate spectrophotometer (Bio-Rad™). The absorbance control values for the series containing CAMHB and inhibitor were subtracted as background from the corresponding infected wells. Minimal inhibitory concentration (MIC) was defined as the lowest concentration of test compound leading to complete inhibition of cell growth in relation to compound-free control wells as determined by optical density. Vancomycin, methicillin and ciprofloxicin were used as reference compounds. All assays were run in triplicate or duplicate. Experiments were replicated at least twice to verify reproducibility using the above conditions.

Test [4] has as its target T1, MRSA Pyk (Staphylococcus aureus, UniProt Q6GG09).
T1 construct: made in house; host or cells: E. coli BL-21 (DE3)
Kind of test: MRSA pyruvate kinase (PK) activity, continuous LDH-coupled assay. It is filed as biochemical, methicillin resistant S. aureus (MRSA252). Summed up:
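His-tagged MRSA PK (strain Sanger 252) and human PK isoforms expressed in E. coli BL-21 (DE3) and Ni-NTA purified, used at 15 nM in an LDH-coupled assay following NADH oxidation at 340 nm, 30° C, up to 5 min, ≤1% DMSO. IC50 from four-parameter variable-slope fit; Ki with PEP 2-20 mM, ADP fixed 2 mM, inhibitor 0-400 nM.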

Test [5] concerns MRSA (ATCC BAA-1762). Kind of test: In vitro susceptibility, broth microdilution (MIC). Format: cell-based, methicillin resistant S. aureus. As to conditions: Staphylococcus aureus, read-out: Antimicrobial activity (MIC) MRSA ATCC BAA1762.
Excerpt: as §2, §3

The mark [6] stands for this setting: S. aureus ATCC29213, 18-24 h, 37 C, read-out: Antimicrobial activity (MIC) S. aureus ATCC29213.
[7] abbreviates: ATCC29213, read-out: Antimicrobial activity (MIC) S. aureus ATCC29213.

Converted amounts (≈) assume the structure as drawn. Where two headings read alike, the source gives them in different places.

One may read the MIC as the smallest concentration in the dilution series that meets the test's criterion for growth inhibition. As usually defined, the IC50 is the concentration that gives 50% inhibition.

T1 sequence (Q6GG09 whole entry): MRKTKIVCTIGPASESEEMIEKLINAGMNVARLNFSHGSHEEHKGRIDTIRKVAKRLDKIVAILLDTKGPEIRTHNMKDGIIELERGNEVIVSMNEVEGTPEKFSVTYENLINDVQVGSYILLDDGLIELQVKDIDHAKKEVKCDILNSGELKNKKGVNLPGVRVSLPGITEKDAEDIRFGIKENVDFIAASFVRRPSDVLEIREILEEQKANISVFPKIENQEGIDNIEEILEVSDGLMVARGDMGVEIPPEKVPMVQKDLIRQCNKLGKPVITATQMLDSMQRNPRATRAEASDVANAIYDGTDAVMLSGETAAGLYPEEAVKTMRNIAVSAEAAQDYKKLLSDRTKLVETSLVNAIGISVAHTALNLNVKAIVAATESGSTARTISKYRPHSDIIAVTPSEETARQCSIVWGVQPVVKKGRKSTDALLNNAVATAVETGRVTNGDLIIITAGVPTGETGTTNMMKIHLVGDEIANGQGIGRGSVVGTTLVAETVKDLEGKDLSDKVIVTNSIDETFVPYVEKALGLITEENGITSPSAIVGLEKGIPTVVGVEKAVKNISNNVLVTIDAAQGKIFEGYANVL

On to `O=C(NCCCN1CCOCC1)c1c(/C=C/c2ccc(Cl)cc2)[nH]c2cc(Br)ccc12` [Compound 48, (E)-6-Bromo-2-(4-chlorostyryl)-N-(3-morpholinopropyl)-1H-indole-3-carboxamide], for which the MIC in test [1] (setting [6]) and in test [2] was greater than 64 µg/mL in each case.

On to `CCCC(=O)OC1CCN(CCNC(=O)c2c(/C=C/c3ccc(Cl)cc3)[nH]c3cc(Br)ccc23)CC1` [Compound 57, (E)-1-(2-(6-Bromo-2-(4-chlorostyryl)-1H-indole-3-carboxamido)ethyl)piperidin-4-yl Butyrate], for which the minimum inhibitory concentration (MIC) in test [3] (VRE#2 (2010A)) and in test [1] (setting [6]) was greater than 64 µg/mL in each case. For the same compound, the IC50 in test [4] was in the range of 100 to 1000 nM.

Regarding `O=C1NCCn2c(cc3cc(Cl)ccc32)-c2[nH]c3cc(Br)ccc3c21` [Compound 74, 12-Bromo-2-chloro-7,8-dihydro-6H-[1,4]diazocino[1,8-a:7,6-b′]diindol-9(14H)-one], the values for the minimal inhibitory concentration (MIC) in test [3] (VRE#2 (2010A)) and in test [1] (setting [6]) were 64 µg/mL (≈ 154 µM) and 32 µg/mL (≈ 77.2 µM), respectively. In test [4], the concentration for half-maximal inhibition (IC50) is less than 100 nM.

For `CNC(=O)Cc1c(CCc2ccc(Cl)cc2)[nH]c2cc(Br)ccc12` [Compound 91, 2-(6-Bromo-2-(4-chlorophenethyl)-1H-indol-3-yl)-N-methylacetamide], the minimum inhibitory concentration (MIC) in test [1] (setting [6]) and in test [2] was greater than 64 µg/mL in each case.

Take `Nc1c(/C=C/c2ccc(Cl)cc2)[nH]c2cc(Br)ccc12` [Compound 92, (E)-6-bromo-2-(4-chlorostyryl)-1H-indol-3-amine]: the MIC in test [3] (VRE#2 (2010A)) was 32 µg/mL (≈ 92 µM); in test [1] (setting [6]), 64 µg/mL (≈ 184 µM). For the same compound, the half-maximal inhibitory concentration (IC50) in test [4] is less than 100 nM.

Take `O=C(Nc1ccccc1)Nc1nc2cc(Br)ccc2s1` [Compound 99, 1-(5-bromobenzo[d]thiazol-2-yl)-3-phenylurea]: the results for the minimal inhibitory concentration (MIC) in test [1] (setting [6]) and in test [2] were 1 µg/mL (≈ 2.87 µM) and 8 µg/mL (≈ 23 µM), respectively.

On to `NC(=O)[C@@H]1CCCN1CCCCNC(=O)c1c(-c2cc3cc(Cl)ccc3[nH]2)[nH]c2cc(Br)ccc12` [Compound 116, (S)-6-Bromo-N-(4-(2-carbamoylpyrrolidin-1-yl)butyl)-5′-chloro-1H,1′H-[2,2′-biindole]-3-carboxamide], for which the MIC in test [1] (setting [6]) is greater than 64 µg/mL. In test [4], the half-inhibitory concentration (IC50) was less than 100 nM.

`C[C@@H]1CN(CCNC(=O)c2c(-c3cc4cc(Cl)ccc4[nH]3)[nH]c3cc(Br)ccc23)[C@@H](C)CN1C` [Compound 122, 6-Bromo-5′-chloro-N-(2-((2S,5R)-2,4,5-trimethylpiperazin-1-yl)ethyl)-1H,1′H-[2,2′-biindole]-3-carboxamide]: the MIC in test [3] (VRE#2 (2010A)), in test [1] (setting [6]) and in test [5] (MRSA ATCC BAA-1762) was 8 µg/mL (≈ 14.7 µM) in each case. The 50% inhibitory concentration (IC50) in test [4] was less than 100 nM.

With `COCCC1CCCN1CCNC(=O)c1c(-c2cc3cc(Cl)ccc3[nH]2)[nH]c2cc(Br)ccc12` (stereo not drawn) [Compound 123, 6-Bromo-5′-chloro-N-(2-(2-(2-methoxyethyl)pyrrolidin-1-yl)ethyl)-1H,1′H-[2,2′-biindole]-3-carboxamide], the minimum inhibitory concentration (MIC) in test [3] (VRE#2 (2010A)), in test [1] (setting [6]) and in test [5] (MRSA ATCC BAA-1762) was 8 µg/mL (≈ 14.7 µM) in each case. Moreover, in test [4], the IC50 was less than 100 nM.

As for `COCCN1CCN(CCNC(=O)c2c(-c3cc4cc(Cl)ccc4[nH]3)[nH]c3cc(Br)ccc23)CC1` [Compound 129, 6-bromo-5′-chloro-N-(2-(4-(2-methoxyethyl)piperazin-1-yl)ethyl)-1H,1′H-2,2′-biindole-3-carboxamide], the MIC in test [3] (VRE#2 (2010A)), in test [1] (setting [6]) and in test [5] (MRSA ATCC BAA-1762) was 16 µg/mL (≈ 28.6 µM) throughout. The compound further had an IC50 in test [4] of less than 100 nM.

Turning to `CN1CCN(CCNC(=O)c2c(-c3cc4cc(Cl)ccc4[nH]3)[nH]c3cc(Br)ccc23)C(c2ccccc2)C1` (stereo not drawn) [Compound 139, 6-Bromo-5′-chloro-N-(2-(4-methyl-2-phenylpiperazin-1-yl)ethyl)-1H,1′H-[2,2′-biindole]-3-carboxamide], the MIC in test [3] (VRE#2 (2010A)) turned out to be 8 µg/mL (≈ 13.5 µM); in test [1] (setting [6]), 4 µg/mL (≈ 6.77 µM); in test [5] (MRSA ATCC BAA-1762), 8 µg/mL (≈ 13.5 µM). The compound also had an IC50 in test [4] of less than 100 nM.

As for `O=C(Nc1ccc(Cl)cc1)Nc1nc2cc(Br)ccc2s1` [Compound 141, 1-(5-bromobenzo[d]thiazol-2-yl)-3-(4-chlorophenyl)urea], the MIC in test [1] (setting [6]) and in test [5] (MRSA ATCC BAA-1762) was 0.5 µg/mL (≈ 1.31 µM) in each case.

`O=C(NCCC[n+]1ccccc1)c1c(-c2cc3cc(Cl)ccc3[nH]2)[nH]c2cc(Br)ccc12` [Compound 144, 1-(3-(6-bromo-5′-chloro-1H,1′H-[2,2′-biindole]-3-carboxamido)propyl)pyridin-1-ium]: the MIC in test [3] (VRE#2 (2010A)) is 16 µg/mL; in test [1] (setting [6]) it was 8 µg/mL; in test [5] (MRSA ATCC BAA-1762), 16 µg/mL. For the same compound, the concentration for half-maximal inhibition (IC50) in test [4] is less than 100 nM.

In the case of `Cc1ccc2sc(NC(=O)Nc3ccc(Cl)cc3)nc2c1` [Compound 170, 1-(4-chlorophenyl)-3-(5-methylbenzo[d]thiazol-2-yl)urea], the minimum inhibitory concentration (MIC) stood at 4 µg/mL (≈ 12.6 µM) in test [1] (setting [6]) and 2 µg/mL (≈ 6.29 µM) in test [5] (MRSA ATCC BAA-1762).

On to `CC(=O)Nc1nc2cc(Br)ccc2s1` [Compound 175, N-(5-bromobenzo[d]thiazol-2-yl)acetamide], for which the MIC in test [3] (VRE#2 (2010A)) came to 32 µg/mL (≈ 118 µM); in test [1] (setting [6]), 32 µg/mL (≈ 118 µM); in test [5] (MRSA ATCC BAA-1762), 16 µg/mL (≈ 59 µM).

In the case of `COC(=O)c1c(NS(=O)(=O)c2ccc(Cl)cc2)[nH]c2cc(Br)ccc12` [Compound 182, Methyl 6-bromo-2-((4-chlorophenyl)sulfonamido)-1H-indole-3-carboxylate], the figures for the MIC in test [3] (VRE#2 (2010A)), in test [1] (setting [6]) and in test [5] (MRSA ATCC BAA-1762) were 64 µg/mL (≈ 144 µM), 8 µg/mL (≈ 18 µM) and 0.5 µg/mL (≈ 1.13 µM), respectively.

For the compound `CC(C)(C)OC(=O)COc1cc2[nH]c(-c3cc4ccc(Br)cc4[nH]3)cc2cc1Cl` [Compound 186, tert-Butyl 2-((6′-bromo-5-chloro-1H,1′H-[2,2′-biindol]-6-yl)oxy)acetate], the MIC in test [1] (setting [6]) is greater than 64 µg/mL. In test [4], this compound displayed an IC50 of less than 100 nM.

For `O=C(O)COc1cc2[nH]c(-c3cc4ccc(Br)cc4[nH]3)cc2cc1Cl` [Compound 187, 2-((6′-Bromo-5-chloro-1H,1′H-[2,2′-biindol]-6-yl)oxy)acetic Acid], the MIC in test [1] (setting [6]) came to 64 µg/mL (≈ 153 µM). In addition, the IC50 in test [4] is less than 100 nM.

Regarding `CS(=O)(=O)OCCOc1cc2[nH]c(-c3cc4ccc(Br)cc4[nH]3)cc2cc1Cl` [Compound 198, 2-((6′-Bromo-5-chloro-1H,1′H-[2,2′-biindol]-6-yl)oxy)ethyl Methanesulfonate], the MIC in test [1] (setting [7]) was greater than 64 µg/mL. Moreover, the IC50 in test [4] was less than 100 nM.

In the case of `CN(C)CCc1c(-c2nc3ccc(Cl)cc3o2)[nH]c2cc(Br)ccc12` [Compound 203, 2-(6-Bromo-2-(6-chlorobenzo[d]oxazol-2-yl)-1H-indol-3-yl)-N,N-dimethylethan-1-amine], the minimal inhibitory concentration (MIC) in test [3] stood at 16 µg/mL (≈ 38.2 µM); in test [1] (setting [7]), 8 µg/mL (≈ 19.1 µM); in test [5] it was 8 µg/mL (≈ 19.1 µM). For the same compound, the IC50 in test [4] is less than 100 nM.

Take `CC(C)(C)OC(=O)N1CCN(C(=O)c2c(-c3cc4cc(Cl)ccc4[nH]3)[nH]c3cc(Br)ccc23)C(C(=O)O)C1` (stereo not drawn) [Compound 224, 1-(6-bromo-5′-chloro-1H,1′H-[2,2′-biindole]-3-carbonyl)-4-(tert-butoxycarbonyl)piperazine-2-carboxylic Acid]: the MIC in test [3] (VRE#2 (2010A)), in test [1] (setting [6]) and in test [5] (MRSA ATCC BAA-1762) was 32 µg/mL (≈ 53.2 µM) each time. The compound further had a 50% inhibitory concentration (IC50) in test [4] of less than 100 nM.

For `O=C(NCCN1CCN[C@H](C(=O)O)C1)c1c(-c2cc3cc(Cl)ccc3[nH]2)[nH]c2cc(Br)ccc12` [Compound 229, (S)-4-(2-(6-bromo-5′-chloro-1H,1′H-[2,2′-biindole]-3-carboxamido)ethyl)piperazine-2-carboxylic Acid], in test [1] (setting [6]), the minimal inhibitory concentration (MIC) is greater than 64 µg/mL. The compound further showed a half-inhibitory concentration (IC50) in test [4] of less than 100 nM.
